# Patent US20150105252A1, “SUBSTITUTED PYRAZOLES AS HERBICIDES” (E I DU PONT DE NEMOURS AND COMPANY, priority 2013, published 2015)
# Assays:
# [1] = tested on: foxtail, giant; experiment: Test A postemergence; assay type: in vivo, Setaria faberii
# How it was run: (§1)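 Ratings express plant response from 0 (no effect) to 100 (complete control), judged visually against untreated controls after approximately 10 days in the greenhouse. Preemergence applications were made as directed soil sprays onto seeded loam–sand mix, and postemergence applications onto 2–10 cm plants at one- to two-leaf stage.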
# [2] = tested on: wheat; experiment: Test A postemergence; assay type: in vivo, Triticum aestivum
# How it was run: as §1
# [3] = tested on: corn; experiment: Test A postemergence; assay type: in vivo, Zea mays
# How it was run: as §1
# [4] = tested on: galium; experiment: Test C preemergence; assay type: in vivo, Galium aparine; details: for Galium plant response rating: scale 0 to 100 (0 no effect, 100 complete control)
# How it was run: (§2)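 Visual control ratings on a 0–100 scale (100 = complete control) made against untreated controls after 13 to 15 days in greenhouse. Compounds applied in surfactant-containing solvent mixture, either preemergence to loam/sand-sown seeds or postemergence to 1- to 4-leaf plants (2–18 cm) in peat medium.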
# [5] = tested on: corn; experiment: Test C preemergence; assay type: in vivo, Zea mays; details: for Corn plant response rating: scale 0 to 100 (0 no effect, 100 complete control)
# How it was run: as §2
# [6] = tested on: foxtail, giant; experiment: Test C preemergence; assay type: in vivo, Setaria faberii; details: for Foxtail, Giant plant response rating: scale 0 to 100 (0 no effect, 100 complete control)
# How it was run: as §2
# [7] = tested on: soybean; experiment: Test C preemergence; assay type: in vivo, Glycine max; details: for Soybean plant response rating: scale 0 to 100 (0 no effect, 100 complete control)
# How it was run: as §2
# [8] = tested on: waterhemp; experiment: Test C preemergence; assay type: in vivo, Amaranthus rudis; details: for Waterhemp plant response rating: scale 0 to 100 (0 no effect, 100 complete control)
# How it was run: as §2
# [9] = tested on: wheat; experiment: Test C postemergence; assay type: in vivo, Triticum aestivum
# How it was run: as §2
# [10] = tested on: galium; experiment: Test C postemergence; assay type: in vivo, Galium aparine
# How it was run: as §2
# [11] = tested on: foxtail, giant; experiment: Test C postemergence; assay type: in vivo, Setaria faberii
# How it was run: as §2
# [12] = tested on: morningglory; experiment: Test C postemergence; assay type: in vivo, Ipomoea coccinea
# How it was run: as §2
# [13] = tested on: barnyardgrass; experiment: Test C postemergence; assay type: in vivo, Echinochloa crus-galli
# How it was run: as §2
# [14] = tested on: kochia; experiment: Test C postemergence; assay type: in vivo, Kochia scoparia
# How it was run: as §2
# [15] = tested on: velvetleaf; experiment: Test C postemergence; assay type: in vivo, Abutilon theophrasti
# How it was run: as §2
# [16] = Postemergence, 500 g ai/ha, 0 to 100 scale (0 no effect, 100 complete control)
# [17] = postemergence, 125 g ai/ha, about 10 days, visual rating on 0 to 100 scale (0 no effect, 100 complete control)
# [18] = preemergence, 31 g ai/ha, visual rating, 13 to 15 days
# [19] = preemergence, 62 g ai/ha, 13 to 15 days
# [20] = preemergence, 125 g ai/ha, 13 to 15 days, scale 0 to 100, 0 = no effect, 100 = complete control
# [21] = Postemergence, 31 g ai/ha, visually evaluated after 13 to 15 days
# [22] = postemergence, 62 g ai/ha, scale 0 to 100
# [23] = postemergence, 250 g ai/ha, scale 0 to 100 (0 no effect, 100 complete control)
# [24] = postemergence, 125 g ai/ha, scale 0 to 100, 0 no effect, 100 complete control
smiles,measurement,setting,value
CCOc1cc(C(=O)NCC(F)(F)F)nn1Cc1ccnc(OC(F)F)c1 [Compound 128],"Foxtail, Giant plant response rating",[1]; [16],100
same,"Foxtail, Giant plant response rating",[1]; [17],100
same,Wheat plant response rating,[2]; [16],90
same,Wheat plant response rating,[2]; [17],70
same,Corn plant response rating,[3]; [16],90
same,Corn plant response rating,[3]; [17],90
same,"Plant response rating (scale of 0 to 100), Galium","[4]; Preemergence, 250 g ai/ha",100
same,Galium plant response rating,[4]; [18],80
same,Galium plant response rating,[4]; [19],80
same,"Plant response rating, Galium",[4]; [20],100
same,"Plant response rating (scale of 0 to 100), Corn","[5]; Preemergence, 250 g ai/ha",70
same,Corn plant response rating,[5]; [18],15
same,Corn plant response rating,[5]; [19],45
same,"Plant response rating, Corn",[5]; [20],65
same,"Plant response rating (scale of 0 to 100), Foxtail, Giant","[6]; Preemergence, 250 g ai/ha",100
same,"Foxtail, Giant plant response rating",[6]; [18],98
same,"Foxtail, Giant plant response rating",[6]; [19],100
same,"Plant response rating, Foxtail, Giant",[6]; [20],100
same,"Plant response rating (scale of 0 to 100), Soybean","[7]; Preemergence, 250 g ai/ha",90
same,Soybean plant response rating,[7]; [18],35
same,Soybean plant response rating,[7]; [19],55
same,"Plant response rating, Soybean",[7]; [20],80
same,"Plant response rating (scale of 0 to 100), Waterhemp","[8]; Preemergence, 250 g ai/ha",100
same,Waterhemp plant response rating,[8]; [18],100
same,Waterhemp plant response rating,[8]; [19],100
same,"Plant response rating, Waterhemp",[8]; [20],100
same,"Plant response rating (scale of 0 to 100 where 0 is no effect and 100 is complete control), Wheat",[9]; [21],5
same,Wheat plant response rating,[9]; [22],5
same,"Plant response rating, Wheat",[9]; [23],5
same,"Plant response rating, Wheat",[9]; [24],10
same,"Plant response rating (scale of 0 to 100 where 0 is no effect and 100 is complete control), Galium",[10]; [21],60
same,Galium plant response rating,[10]; [22],65
same,"Plant response rating, Galium",[10]; [23],70
same,"Plant response rating, Galium",[10]; [24],80
same,"Plant response rating (scale of 0 to 100 where 0 is no effect and 100 is complete control), Foxtail, Giant",[11]; [21],5
same,"Foxtail, Giant plant response rating",[11]; [22],10
same,"Plant response rating, Foxtail, Giant",[11]; [23],85
same,"Plant response rating, Foxtail, Giant",[11]; [24],25
same,"Plant response rating (scale of 0 to 100 where 0 is no effect and 100 is complete control), Morningglory",[12]; [21],75
same,Morningglory plant response rating,[12]; [22],65
same,"Plant response rating, Morningglory",[12]; [23],80
same,"Plant response rating, Morningglory",[12]; [24],45
same,"Plant response rating (scale of 0 to 100 where 0 is no effect and 100 is complete control), Barnyardgrass",[13]; [21],5
same,Barnyardgrass plant response rating,[13]; [22],5
same,"Plant response rating, Barnyardgrass",[13]; [23],60
same,"Plant response rating, Barnyardgrass",[13]; [24],15
same,"Plant response rating (scale of 0 to 100 where 0 is no effect and 100 is complete control), Kochia",[14]; [21],60
same,Kochia plant response rating,[14]; [22],65
same,"Plant response rating, Kochia",[14]; [23],90
same,"Plant response rating, Kochia",[14]; [24],65
same,"Plant response rating (scale of 0 to 100 where 0 is no effect and 100 is complete control), Velvetleaf",[15]; [21],10
same,Velvetleaf plant response rating,[15]; [22],15
same,"Plant response rating, Velvetleaf",[15]; [23],65
same,"Plant response rating, Velvetleaf",[15]; [24],35
